# What was measured:
# pCRY-PHR = target: T1, pCRY-PHR (Chlamydomonas reinhardtii, UniProt Q42696); test: light-induced in-cell ATR-FTIR difference spectroscopy (ICIRD); type: cell-based; details: living HEK cells, 37 °C, blue light; noncovalent; oxidized flavin to flavin neutral radical
# T1 construct: gene CPH1; photolyase homology region (PHR) without CCT, mCherry fused as reporter; stably transfected HEK cells, also E. coli cells
# [1] = target: T2, LOV (LOV sensor of aureochrome1a) (Phaeodactylum tricornutum, UniProt A0A140UHJ0, I28V); test: light-induced FTIR difference spectroscopy in vitro; type: binding; details: wild type compared with I264V; covalent photoadduct with Cys287 on illumination
# T2 construct: isolated LOV sensor domain without bZIP effector; transiently transfected HEK cells, also E. coli cells and in vitro
# [2] = target: T3, LOV (LOV sensor of aureochrome1a) (Phaeodactylum tricornutum, UniProt A0A140UHJ0, I28V, form not given); test: light-induced in-cell ATR-FTIR difference spectroscopy (ICIRD); type: cell-based; details: living HEK cells, 37 °C, blue light; covalent photoadduct with Cys287 on illumination, noncovalent in dark; also in vitro and E. coli cells
# T3 construct: isolated LOV sensor domain without bZIP effector; transiently transfected HEK cells, also E. coli cells and in vitro
# T3 sequence (A0A140UHJ0 entry or part of it I28V, form open): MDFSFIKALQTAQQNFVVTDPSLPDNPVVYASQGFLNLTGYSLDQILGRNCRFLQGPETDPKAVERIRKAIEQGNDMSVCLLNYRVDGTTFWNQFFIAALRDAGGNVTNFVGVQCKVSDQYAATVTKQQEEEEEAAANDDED
# T1 sequence (Q42696 entry or part of it): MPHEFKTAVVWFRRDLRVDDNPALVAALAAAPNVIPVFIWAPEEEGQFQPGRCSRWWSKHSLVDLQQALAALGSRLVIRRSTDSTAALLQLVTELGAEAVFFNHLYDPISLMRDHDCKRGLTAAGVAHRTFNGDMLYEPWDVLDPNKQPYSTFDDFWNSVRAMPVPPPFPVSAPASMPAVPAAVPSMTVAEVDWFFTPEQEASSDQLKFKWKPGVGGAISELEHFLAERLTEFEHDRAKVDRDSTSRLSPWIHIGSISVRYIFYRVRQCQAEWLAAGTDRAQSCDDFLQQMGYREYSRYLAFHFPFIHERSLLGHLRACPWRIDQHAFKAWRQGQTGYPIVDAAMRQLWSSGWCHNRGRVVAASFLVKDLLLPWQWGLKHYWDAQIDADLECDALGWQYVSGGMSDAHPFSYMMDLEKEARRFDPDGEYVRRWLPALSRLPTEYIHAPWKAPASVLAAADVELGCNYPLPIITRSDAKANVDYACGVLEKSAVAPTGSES
# T2 sequence (A0A140UHJ0 entry or part of it I28V): as the sequence (A0A140UHJ0 entry or part of it I28V, form open) above
SMILES,light-induced in-cell ATR-FTIR difference spectroscopy (ICIRD) (pCRY-PHR),light-induced FTIR difference spectroscopy in vitro [1],light-induced in-cell ATR-FTIR difference spectroscopy (ICIRD) [2]
Cc1cc2nc3c(=O)[nH]c(=O)nc-3n(C[C@H](O)[C@H](O)[C@H](O)COP(=O)(O)OP(=O)(O)OC[C@H]3O[C@@H](n4cnc5c(N)ncnc54)[C@H](O)[C@@H]3O)c2cc1C [flavin adenine dinucleotide],photoreaction of the oxidized flavin to the flavin neutral radical in pCRY-PHR,,
Cc1cc2nc3c(=O)[nH]c(=O)nc-3n(C[C@H](O)[C@H](O)[C@H](O)COP(=O)(O)O)c2cc1C [flavin mononucleotide],,without altering the mechanism (Figure S6A),formation of the cysteine adduct from the oxidized flavin

# — paper PMC11926855, “Photochemistry of Receptor-Bound Flavin Resolved in Living Human Cells by Infrared Spectroscopy” (Journal of the American Chemical Society, 2025)
